Data from US20030220300A1, “Reduction of hair growth” (priority 2002, published 2003).

Legend:
[1] = tested on: Golden Syrian hamster flank organs (hair growth); assay: Golden Syrian hamster assay (hair mass assay); type: in vivo; conditions: topical, three weeks
Source text: Golden Syrian Hamster Assay
Male intact Golden Syrian hamsters are considered acceptable models for human beard hair growth in that they display oval shaped flank organs, one on each side, each about 8 mm. in major diameter. These organs produce fine light colored hair typical of the animal pelage found on the body. In response to androgens the flank organs produce dark coarse hair similar to male human beard hair. To evaluate the effectiveness of a composition in reducing hair growth, the flank organs of each of a group of hamsters are depilated by applying a thioglycolate based chemical depilatory (Surgex) and/or shaved. To one organ of each animal 10 μl. of vehicle alone once a day is applied, while to the other organ of each animal an equal amount of vehicle containing the ligand under evaluation is applied. After three weeks of topical applications (one application per day for five days a week), the flank organs are shaved and the amount of recovered hair (hair mass) from each is weighed. Percent-reduction of hair growth is calculated by subtracting the hair mass (mg) value of the test compound treated side from the hair mass value of the vehicle treated side; the delta value obtained is then divided by the hair mass value of the vehicle treated side, and the resultant number is multiplied by 100.
The above-described assay will be referred to herein as the “Golden Syrian hamster” assay or “hair mass” assay. Preferred compositions provide a reduction in hair growth of at least about 15% and more preferably at least about 35%, when tested in the Golden Syrian hamster assay.

[2] = tested on: Human hair follicles in growth phase (anagen); assay: Human hair follicle growth assay; type: cell-based; conditions: for % Reduction of human hair follicle growth / Hair follicle length increase (mm) Treated: day 0 to day 7 (Table II)
Source text: Human Hair Follicle Growth Assay
Tissue source—Human skin was obtained from a plastic surgeon as a by-product of face-lift procedures. Immediately after removal, the skin was placed in Williams E medium containing antibiotics and refrigerated. The Williams E medium is a commercially obtained medium which has been formulated with essential nutrients for maintaining viability of tissues or cells such as of hair follicle in an in-vitro environment.
Hair Follicle Isolation and Culture—Human hair follicles in growth phase (anagen) were isolated from face-lift tissue (obtained from plastic surgeons) under dissecting scope using a scalpel and watchmakers forceps. The skin was sliced into thin strips exposing 2-3 rows of follicles that could readily be dissected. Follicles were placed into 0.5 ml William's E medium (Life Technologies, Gaithersburg, Md.) supplemented with 2 mM L-glutamine, 10 μg/ml insulin, 10 ng/ml hydrocortisone, 100 units of penicillin, 0.1 mg/ml streptomycin and 0.25 μg/ml amphotericin B. The follicles were incubated in 24-well plates (1 follicle/well) at 37° C. in an atmosphere of 5% CO2 and 95% air. Thiazolidinediones are dissolved into dimethyl sulfoxide as 100-fold stock solution. The control hair follicles were treated with dimethyl sulfoxide without thiazolidinedione. The follicles were photographed in the 24-well plates under the dissecting scope at a power of 10×. Typically, image recordings were made on day 0 (day follicles were placed in culture), and again on day 7. The length of Hair follicle was assessed using an image analysis software system (Jasc Image Robot). The growth of hair fiber was calculated by the subtracting the follicle length on day 0 from that determined on day 7.

## CCc1ccc(CCOc2ccc(CC3SC(=O)NC3=O)cc2)nc1 (centres unmarked) [Pioglitazone, pioglitazone]
[1]; dose 5%, vehicle B
  % Reduction of hamster hair mass: 47.7 ± 4.1%
  Treated (mg) hair mass: 1.32 ± 0.06 mg
[1]; dose 5%, vehicle B, listed as pioglitazone
  % Reduction of hamster hair mass: 47.7%
[2]; 15 μM (Table IV)
  % Reduction: 30.2 ± 19.8%
  Hair follicle length increase (mm): 0.67 ± 0.19 mm
[2]; 30 μM (Table IV)
  % Reduction: 76.0 ± 16.7%
  Hair follicle length increase (mm): 0.23 ± 0.16 mm
[2]; 45 μM (Table IV)
  % Reduction: 89.6 ± 14.6%
  Hair follicle length increase (mm): 0.1 ± 0.14 mm
[2]; 50 μM
  % Reduction of human hair follicle growth: 86.7 ± 6.2%
  Hair follicle length increase (mm) Treated: 0.15 ± 0.07 mm

## CC1(COc2ccc(CC3SC(=O)NC3=O)cc2)CCCCC1 (centres unmarked) [Ciglitazone, ciglitazone]
[1]; dose 1.3%, vehicle A
  % Reduction of hamster hair mass: 22.7 ± 5.8%
  Treated (mg) hair mass: 2.78 ± 0.23 mg
[1]; dose 1.3%, vehicle A, listed as ciglitazone
  % Reduction of hamster hair mass: 22.7%
[2]; 3 μM (Table III)
  % Reduction: 38.2 ± 23.0%
  Hair follicle length increase (mm): 1.34 ± 0.5 mm
[2]; 6 μM (Table III)
  % Reduction: 75.1 ± 13.8%
  Hair follicle length increase (mm): 0.54 ± 0.3 mm
[2]; 9 μM (Table III)
  % Reduction: 90.8 ± 9.2%
  Hair follicle length increase (mm): 0.2 ± 0.2 mm
[2]; 20 μM
  % Reduction of human hair follicle growth: 87.5 ± 15.6%
  Hair follicle length increase (mm) Treated: 0.19 ± 0.24 mm

## O=C1NC(=S)SC1=Cc1cc([N+](=O)[O-])ccc1Sc1ccccc1 [5-(5-nitro-2-phenylsulfanyl-benzylidene)-2-thioxo-thiazolidin-4-one]
[2]; 0.1 μM (Table VI)
  % Reduction: 66.9 ± 15.2%
  Hair follicle length increase (mm): 0.37 ± 0.17 mm
[2]; 0.5 μM (Table VI)
  % Reduction: 85.7 ± 15.2%
  Hair follicle length increase (mm): 0.16 ± 0.17 mm
[2]; 1.0 μM (Table VI)
  % Reduction: 93.7 ± 7.1%
  Hair follicle length increase (mm): 0.07 ± 0.08 mm
[2]; 10 μM
  % Reduction of human hair follicle growth: 94.6 ± 3.9%
  Hair follicle length increase (mm) Treated: 0.11 ± 0.08 mm
[2]; human hair follicle growth assay, summary of Table II
  Effect on human hair growth (in words): can reduce human hair growth

## CN(CCOc1ccc(CC2SC(=O)NC2=O)cc1)c1ccccn1 (centres unmarked) [Rosiglitazone, rosiglitazone]
[1]; dose 10%, vehicle A
  % Reduction of hamster hair mass: 40.0 ± 5.0%
  Treated (mg) hair mass: 1.78 ± 0.71 mg
[1]; dose 10%, vehicle A, listed as rosiglitazone
  % Reduction of hamster hair mass: 40%
[2]; 20 μM (Table V)
  % Reduction: 34.8 ± 20.6%
  Hair follicle length increase (mm): 0.92 ± 0.29 mm
[2]; 40 μM (Table V)
  % Reduction: 47.5 ± 10.6%
  Hair follicle length increase (mm): 0.74 ± 0.15 mm
[2]; 60 μM (Table V)
  % Reduction: 63.1 ± 14.1%
  Hair follicle length increase (mm): 0.52 ± 0.2 mm
[2]; 100 μM
  % Reduction of human hair follicle growth: 75.2 ± 16.5%
  Hair follicle length increase (mm) Treated: 0.24 ± 0.16 mm

## Cc1c(C)c2c(c(C)c1O)CCC(C)(COc1ccc(CC3SC(=O)NC3=O)cc1)O2 (centres unmarked) [Troglitazone, troglitazone]
[2]; 100 μM
  % Reduction of human hair follicle growth: 91.5 ± 6.2%
  Hair follicle length increase (mm) Treated: 0.11 ± 0.08 mm
